Read-outs that look alike come from different tables or passages of the source.
Columns and labels:
Experiment in all cases: MIC, broth microdilution (CLSI), substance alone or ATB combined with compound at 4 or 8 μg/mL
SAU 29213 = type: cell-based, S. aureus; conditions: SAU 29213
Outline: (§1)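 Growth inhibition endpoint, read visually after 16-20 h at 35° C in ambient air. Cation-adjusted Mueller-Hinton broth, inoculum 5·10^5 CFU/mL, CLSI M7-A7 protocol.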

SPN 49619 = type: cell-based, S. pneumoniae; conditions: SPN 49619
Outline: as §1

ECL P99 = type: cell-based, E. cloacae; conditions: ECL P99; for MIC: Enterobacter cloacae
Outline: as §1

ECO 190317 = type: cell-based, E. coli; conditions: ECO 190317; for MIC: Escherichia coli
Outline: as §1

ECO UFR39 = type: cell-based, E. coli; conditions: ECO UFR39
Outline: as §1

KPN 6299 = type: cell-based, K. pneumoniae; conditions: for MIC: Klebsiella pneumoniae
Outline: as §1

[1] = antibiotic alone, read-out: MIC ATB alone

COCC1=C(C(=O)O)N2C(=O)[C@@H](NC(=O)/C(=N\OC)c3csc(N)n3)[C@H]2SC1 [POD, Cefpodoxime, reference compound]
16 µg/mL: MIC ATB combined with Example 7 @8 μgml (ECL P99; with Example 7 at 8 μg/ml)
64 µg/mL: MIC (KPN 6299; [1]) | MIC (KPN 6299; substance alone, read-out: MIC)
0.063 µg/mL: MIC ATB combined with Example 1 @8 μg/ml (SPN 49619; with Example 1 at 8 μg/ml) | MIC ATB combined with Example 7 @8 μgml (SPN 49619; with Example 7 at 8 μg/ml) | MIC ATB combined with Example 13 @8 μg/ml (SPN 49619; with Example 13 at 8 μg/ml) | MIC (SPN 49619; Streptococcus pneumoniae, antibiotic alone, read-out: MIC ATB alone)
> 256 µg/mL: MIC (ECO UFR39; Escherichia coli, antibiotic alone, read-out: MIC ATB alone)
<0.031 µg/mL: MIC ATB combined with Example 11 @8 μg/ml (SAU 29213; with Example 11 at 8 μg/ml) | MIC ATB combined with Example 12 @8 μg/ml (SAU 29213; with Example 12 at 8 μg/ml) | MIC ATB combined with Example 14 @8 μg/ml (SAU 29213; with Example 14 at 8 μg/ml) | MIC ATB combined with Example 15 @4 μgml (SAU 29213; with Example 15 at 4 μg/ml) | MIC ATB combined with Example 16 @4 μg/ml (SAU 29213; with Example 16 at 4 μg/ml) | MIC ATB combined with Example 9 @4 μg/ml (SPN 49619; with Example 9 at 4 μg/ml) | MIC ATB combined with Example 12 @8 μg/ml (SPN 49619; with Example 12 at 8 μg/ml) | MIC ATB combined with Example 14 @8 μg/ml (SPN 49619; with Example 14 at 8 μg/ml) | MIC ATB combined with Example 16 @4 μg/ml (SPN 49619; with Example 16 at 4 μg/ml) | MIC ATB combined with Example 9 @4 μg/ml (ECL P99; with Example 9 at 4 μg/ml) | MIC ATB combined with Example 11 @8 μg/ml (ECL P99; with Example 11 at 8 μg/ml) | MIC ATB combined with Example 12 @8 μg/ml (ECL P99; with Example 12 at 8 μg/ml) | MIC ATB combined with Example 14 @8 μg/ml (ECL P99; with Example 14 at 8 μg/ml) | MIC ATB combined with Example 15 @4 μgml (ECL P99; with Example 15 at 4 μg/ml) | MIC ATB combined with Example 16 @4 μg/ml (ECL P99; with Example 16 at 4 μg/ml) | MIC ATB combined with Example 1 @8 μg/ml (ECO 190317; with Example 1 at 8 μg/ml) | MIC ATB combined with Example 7 @8 μgml (ECO 190317; with Example 7 at 8 μg/ml) | MIC ATB combined with Example 9 @4 μg/ml (ECO 190317; with Example 9 at 4 μg/ml) | MIC ATB combined with Example 11 @8 μg/ml (ECO 190317; with Example 11 at 8 μg/ml) | MIC ATB combined with Example 12 @8 μg/ml (ECO 190317; with Example 12 at 8 μg/ml) | MIC ATB combined with Example 13 @8 μg/ml (ECO 190317; with Example 13 at 8 μg/ml) | MIC ATB combined with Example 14 @8 μg/ml (ECO 190317; with Example 14 at 8 μg/ml) | MIC ATB combined with Example 15 @4 μgml (ECO 190317; with Example 15 at 4 μg/ml) | MIC ATB combined with Example 16 @4 μg/ml (ECO 190317; with Example 16 at 4 μg/ml) | MIC ATB combined with Example 1 @8 μg/ml (ECO UFR39; with Example 1 at 8 μg/ml) | MIC ATB combined with Example 7 @8 μgml (ECO UFR39; with Example 7 at 8 μg/ml) | MIC ATB combined with Example 9 @4 μg/ml (ECO UFR39; with Example 9 at 4 μg/ml) | MIC ATB combined with Example 11 @8 μg/ml (ECO UFR39; with Example 11 at 8 μg/ml) | MIC ATB combined with Example 12 @8 μg/ml (ECO UFR39; with Example 12 at 8 μg/ml) | MIC ATB combined with Example 13 @8 μg/ml (ECO UFR39; with Example 13 at 8 μg/ml) | MIC ATB combined with Example 14 @8 μg/ml (ECO UFR39; with Example 14 at 8 μg/ml) | MIC ATB combined with Example 15 @4 μgml (ECO UFR39; with Example 15 at 4 μg/ml) | MIC ATB combined with Example 16 @4 μg/ml (ECO UFR39; with Example 16 at 4 μg/ml)
<=0.031 μg/mL: MIC ATB combined with Example 9 @4 μg/ml (SAU 29213; with Example 9 at 4 μg/ml) | MIC ATB combined with Example 11 @8 μg/ml (SPN 49619; with Example 11 at 8 μg/ml) | MIC ATB combined with Example 15 @4 μgml (SPN 49619; with Example 15 at 4 μg/ml) | MIC ATB combined with Example 1 @8 μg/ml (ECL P99; with Example 1 at 8 μg/ml)
> 512 µg/mL: MIC (ECL P99; [1]) | MIC (ECL P99; substance alone, read-out: MIC) | MIC (ECO 190317; [1]) | MIC (ECO 190317; substance alone, read-out: MIC)
0.25 µg/mL: MIC ATB combined with Example 1 @8 μg/ml (KPN 6299; with Example 1 at 8 μg/ml) | MIC ATB combined with Example 7 @8 μgml (KPN 6299; with Example 7 at 8 μg/ml)
4 µg/mL: MIC ATB combined with Example 1 @8 μg/ml (SAU 29213; with Example 1 at 8 μg/ml) | MIC (SAU 29213; Staphylococcus aureus, antibiotic alone, read-out: MIC ATB alone) | MIC ATB combined with Example 13 @8 μg/ml (ECL P99; with Example 13 at 8 μg/ml)
2 µg/mL: MIC ATB combined with Example 7 @8 μgml (SAU 29213; with Example 7 at 8 μg/ml) | MIC ATB combined with Example 13 @8 μg/ml (SAU 29213; with Example 13 at 8 μg/ml)
